Measured values as given in ChEMBL document CHEMBL6127026, “Design, synthesis and anti-HBV activity study of novel HBV capsid assembly modulators” (Bioorg Med Chem Lett, 2024).

Experiments:
[1] = Selectivity index, ratio of CC50 for human HePAD38 cells to EC50 for hepatitis B virus infected in HePAD38 cells; assay type: toxicity, cell-based; settings: read-out: Ratio CC50/EC50
[2] = AUC (0 to infinity) in male Beagle dog at 1.5 mg/kg, po administered via gavage and measured after 24 hrs by LC-MS/MS analysis; assay type: ADME, organism-based, Canis lupus familiaris; settings: in vivo
[3] = tested on: Hepatitis B virus; assay: Antiviral activity against Hepatitis B virus infected in human HePAD38 cells assessed as inhibition of viral DNA replication by qPCR analysis; assay type: functional, organism-based
[4] = Cytotoxicity against human HePAD38 cells by CCK8 assay; assay type: toxicity, cell-based
[5] = Octanol/water partition coefficient, log P of the compound; assay type: physicochemical
[6] = Cmax in male Beagle dog at 1.5 mg/kg, po administered via gavage and measured after 24 hrs by LC-MS/MS analysis; assay type: ADME, organism-based, Canis lupus familiaris; settings: in vivo
[7] = Metabolic stability in human plasma assessed as parent compound remaining measured immediately; assay type: ADME, cell-free; settings: read-out: Stability
[8] = Metabolic stability in human liver microsomes assessed as parent compound remaining measured after 60 mins in presence of NADPH co-factor; assay type: ADME, Microsome; settings: read-out: Stability
[9] = Metabolic stability in human plasma assessed as parent compound remaining measured after 120 mins; assay type: ADME, cell-free; settings: read-out: Stability
[10] = Metabolic stability in human liver microsomes assessed as parent compound remaining measured after 60 mins in absence of NADPH co-factor; assay type: ADME, Microsome; settings: read-out: Stability
[11] = Metabolic stability in human plasma assessed as parent compound remaining measured after 60 mins; assay type: ADME, cell-free; settings: read-out: Stability
[12] = Metabolic stability in human liver microsomes assessed as intrinsic clearance; assay type: ADME, Microsome; settings: read-out: CLH
[13] = biological target: Core antigen (Hepatitis B virus, UniProt Q03732); assay: Inhibition of Hepatitis B virus Capsid protein assembly activity by fluorescence based analysis
[14] = Metabolic stability in human liver assessed as intrinsic clearance; assay type: ADME, tissue-based; settings: read-out: CLH
[15] = Metabolic stability in human plasma assessed as parent compound remaining measured after 30 mins; assay type: ADME, cell-free; settings: read-out: Stability
[16] = Metabolic stability in human plasma assessed as parent compound remaining measured after 10 mins; assay type: ADME, cell-free; settings: read-out: Stability
[17] = Metabolic stability in human plasma assessed as half-life; assay type: ADME, cell-free
[18] = Metabolic stability in human liver microsomes assessed as half-life; assay type: ADME, Microsome

Sequence of Core antigen (Q03732 whole entry): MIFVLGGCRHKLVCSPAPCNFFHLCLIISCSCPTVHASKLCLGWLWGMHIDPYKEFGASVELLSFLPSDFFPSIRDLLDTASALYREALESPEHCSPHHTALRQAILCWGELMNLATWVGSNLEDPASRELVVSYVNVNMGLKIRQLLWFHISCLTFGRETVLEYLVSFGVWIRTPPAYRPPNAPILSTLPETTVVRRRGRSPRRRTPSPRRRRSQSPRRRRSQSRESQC

Compound	selectivity ratio [1]	EC50 [3]	CC50 [4]	other results
O=C(Nc1cc(F)c(F)c(F)c1)c1ccc(F)c(S(=O)(=O)N2CCC(O)CC2)c1	88.4	290 nM	20.8 µM	AUC(0-inf) [2]: 3500 ng·h/mL; logP [5]: 1.75; Cmax [6]: 560 ng/mL
O=C(c1cc(S(=O)(=O)NC2CCCC2)cc2c1OCCO2)N1CCC(O)CC1		> 20000 nM	> 100 µM	
O=C(Nc1cc(F)c(F)c(F)c1)c1cc(S(=O)(=O)NC2CCCC2)cc2c1OCCO2	> 419	240 nM	> 100 µM	remaining at 0 min [7]: 100%; remaining at 1 h [8]: 5%; remaining at 2 h [9]: 99.4%; remaining at 1 h [10]: 84.1%; remaining at 1 h [11]: 115%; logP ([5]; read-out: logP): 1.59; microsomal CLint [12]: 99.8 µL/min/mg; IC50 [13]: 1450 nM; CLint scaled [14]: 89.8 mL/min/kg; remaining at 0.5 h [15]: 112%; remaining at 10 min [16]: 115%; half-life [17]: > 289 min; half-life [18]: 13.9 min
N#Cc1cc(NC(=O)c2cc(S(=O)(=O)NC3CCCC3)cc3c2OCCO3)ccc1F	> 65.3	1530 nM	> 100 µM	
O=C(Nc1cc(F)cc(F)c1)c1cc(S(=O)(=O)NC2CCCC2)cc2c1OCCO2	> 232	430 nM	> 100 µM	
O=C(NC1CCCC1)c1cc(S(=O)(=O)NC2CCCC2)cc2c1OCCO2		> 20000 nM	> 100 µM	
O=C(Nc1ccc(F)cc1)c1cc(S(=O)(=O)NC2CCCC2)cc2c1OCCO2	> 98.2	1000 nM	> 100 µM	
O=C(Nc1ccc(F)c(F)c1)c1cc(S(=O)(=O)NC2CCCC2)cc2c1OCCO2	89	910 nM	81.4 µM	
O=C(Nc1ccc(F)c(Cl)c1)c1cc(S(=O)(=O)NC2CCCC2)cc2c1OCCO2	95.5	500 nM	48.2 µM	IC50 [13]: 4220 nM
O=C(Nc1ccc(F)c(Cl)c1)c1cc(S(=O)(=O)Nc2nccs2)cc2c1OCCO2		> 20000 nM	> 100 µM	
Cc1cc(NC(=O)c2cc(S(=O)(=O)NC3CCCC3)cc3c2OCCO3)ccc1F	104	490 nM	51 µM	
O=C(Nc1ccc(F)c(Cl)c1)c1cc(S(=O)(=O)Nc2ccsc2)cc2c1OCCO2	> 116	860 nM	> 100 µM	
O=C(Nc1ccc(F)c(Cl)c1)c1cc2c(c(S(=O)(=O)Nc3ccc(F)c(Cl)c3)c1)OCCO2	1.46	4560 nM	6.64 µM	
O=C(NC1CCCC1)c1cc2c(c(S(=O)(=O)Nc3cc(F)c(F)c(F)c3)c1)OCCO2	2.79	7360 nM	20.5 µM	
O=C(NC1CCCC1)c1cc(S(=O)(=O)Nc2cc(F)c(F)c(F)c2)cc2c1OCCO2		> 20000 nM	> 100 µM	
O=C(NC1CCCC1)c1cc(S(=O)(=O)Nc2ccc(F)c(Cl)c2)cc2c1OCCO2	> 93	1070 nM	> 100 µM	
O=C(NC1CCCC1)c1cc2c(c(S(=O)(=O)Nc3ccc(F)c(Cl)c3)c1)OCCO2		> 20000 nM	> 100 µM	
O=C(O)Cc1ccccc1Nc1c(Cl)cccc1Cl [DICLOFENAC]				CLint scaled [14]: 232 mL/min/kg
CC(C)[N+](C)(CCOC(=O)C1c2ccccc2Oc2ccccc21)C(C)C.[Br-] [PROPANTHELINE BROMIDE]				remaining at 1 h [11]: 0.4%; remaining at 0.5 h [15]: 8.3%; remaining at 10 min [16]: 52%; half-life [17]: 7.4 min
